One experiment has as its target TBK1 (Homo sapiens (Human), UniProt Q9UHD2). Put plainly: TBK1 low ATP kinase assay (in vitro assay 1). As to conditions: TBK1 low ATP kinase assay IC50, in vitro assay 1. In kind it is biochemical.
Chain of TBK1 (Q9UHD2 whole entry): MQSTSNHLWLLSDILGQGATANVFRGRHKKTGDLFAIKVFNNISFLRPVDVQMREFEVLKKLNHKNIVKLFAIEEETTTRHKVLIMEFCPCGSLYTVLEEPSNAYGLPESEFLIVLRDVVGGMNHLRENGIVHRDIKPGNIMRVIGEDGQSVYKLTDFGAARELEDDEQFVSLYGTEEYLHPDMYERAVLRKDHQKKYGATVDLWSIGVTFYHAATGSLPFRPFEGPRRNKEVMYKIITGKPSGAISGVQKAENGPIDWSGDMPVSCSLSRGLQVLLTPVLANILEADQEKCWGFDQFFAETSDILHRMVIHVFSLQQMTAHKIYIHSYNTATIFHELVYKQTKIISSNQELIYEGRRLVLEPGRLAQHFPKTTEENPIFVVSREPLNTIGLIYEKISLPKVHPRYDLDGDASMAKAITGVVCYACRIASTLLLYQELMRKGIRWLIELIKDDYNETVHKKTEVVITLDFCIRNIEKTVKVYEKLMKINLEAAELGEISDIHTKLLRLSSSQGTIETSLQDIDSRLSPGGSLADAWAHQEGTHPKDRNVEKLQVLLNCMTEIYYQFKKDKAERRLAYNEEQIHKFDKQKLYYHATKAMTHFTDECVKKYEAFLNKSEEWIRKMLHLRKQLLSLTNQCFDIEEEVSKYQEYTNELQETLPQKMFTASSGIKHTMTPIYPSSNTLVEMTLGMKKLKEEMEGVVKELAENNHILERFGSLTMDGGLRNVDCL
For `Cc1noc(-c2ccc3nc(Nc4cc(C(C)N5CCN(C(=O)CC(F)(F)F)CC5)ccn4)[nH]c3c2)n1` (racemic) [Example 16.05.02, (rac)-3,3,3-trifluoro-1-{4-[1-(2-{[6-(3-methyl-1,2,4-oxadiazol-5-yl)-1H-benzimidazol-2-yl]amino}pyridin-4-yl)ethyl]piperazin-1-yl}propan-1-one], it took 33 nM to reach half-maximal inhibition (IC50).

For `Cc1noc(-c2ccc3nc(Nc4cc(C(C)N5CCN(C(=O)CC(F)(F)F)CC5)ccn4)[nH]c3c2)n1` (single isomer, unassigned) [Example 16.06.02.B, 3,3,3-trifluoro-1-{4-[(1S or 1R)-1-(2-{[6-(3-methyl-1,2,4-oxadiazol-5-yl)-1H-benzimidazol-2-yl]amino}pyridin-4-yl)ethyl]piperazin-1-yl}propan-1-one], the IC50 stood at 17.2 nM.

Staying with this experiment, now noted: in vitro assay 1, read-out: TBK1 low ATP kinase assay IC50.
As for `CC(C)(C)OC(=O)N1CCN(Cc2ccnc(Nc3nc4ccc(-c5cc(N6CCCCC6)ncn5)cc4[nH]3)c2)CC1` [Example 145.01, tert-butyl 4-{[2-({6-[6-(piperidin-1-yl)pyrimidin-4-yl]-1H-benzimidazol-2-yl}amino)pyridin-4-yl]methyl}piperazine-1-carboxylate], the IC50 was found to be 13 nM.

In the case of `COc1cnccc1-c1ccc2nc(Nc3cc(CN4CCN(C(=O)C5CC5)CC4)ccn3)[nH]c2c1OCC(C)C` [Example 50.02, cyclopropyl{4-[(2-{[6-(3-methoxypyridin-4-yl)-7-(2-methylpropoxy)-1H-benzimidazol-2-yl]amino}pyridin-4-yl)methyl]piperazin-1-yl}methanone], the IC50 amounted to 333 nM.

Turning to `O=C(CC(F)(F)F)N1CCN(Cc2ccnc(Nc3nc4ccc(-c5ncccn5)cc4[nH]3)c2)CC1` [Example 180.02, 3,3,3-trifluoro-1-{4-[(2-{[6-(pyrimidin-2-yl)-1H-benzimidazol-2-yl]amino}pyridin-4-yl)methyl]piperazin-1-yl}propan-1-one], the IC50 stood at 556 nM.

As to `CSc1cc(-c2ccc3nc(Nc4cc(CN5CCN(C(=O)C6CC6)CC5)ccn4)[nH]c3c2)ncn1` [Example 95.02, cyclopropyl(4-{[2-({6-[6-(methylsulfanyl)pyrimidin-4-yl]-1H-benzimidazol-2-yl}amino)pyridin-4-yl]methyl}piperazin-1-yl)methanone], the IC50 turned out to be 9.5 nM.

In the case of `COc1c(Cl)ncnc1-c1ccc2nc(Nc3cc(CN4CCN(C(=O)CC(F)(F)F)CC4)ccn3)[nH]c2c1` [Example 60.01, 1-{4-[(2-{[6-(6-chloro-5-methoxypyrimidin-4-yl)-1H-benzimidazol-2-yl]amino}pyridin-4-yl)methyl]piperazin-1-yl}-3,3,3-trifluoropropan-1-one], the IC50 came out at 43 nM.

Regarding `COc1c(-c2ccc3nc(Nc4cc(C(C)N5CCN(C(=O)C6(C(F)(F)F)CC6)CC5)ccn4)[nH]c3c2)ncnc1N(C)C` (single isomer, unassigned) [Example 107.02.04, (4-{(1R or 1S)-1-[2-({6-[6-(dimethylamino)-5-methoxypyrimidin-4-yl]-1H-benzimidazol-2-yl}amino)pyridin-4-yl]ethyl}piperazin-1-yl)[1-(trifluoromethyl)cyclopropyl]methanone], the IC50 was 5.2 nM.

Take `CC(c1ccnc(Nc2nc3ccc(-c4cnn(CC5CC5(F)F)c4)cc3[nH]2)c1)N1CCN(C(=O)OC(C)(C)C)CC1` (single isomer, unassigned) [Example 55.01.01, tert-butyl 4-[(1R or 1S)-1-(2-{[6-(1-{[(1R or 1S)-2,2-difluorocyclopropyl]methyl}-1H-pyrazol-4-yl)-1H-benzimidazol-2-yl]amino}pyridin-4-yl)ethyl]piperazine-1-carboxylate]: the IC50 came to 5.5 nM.

Consider `COc1cncnc1-c1ccc2nc(Nc3cc(CN4CCN(S(=O)(=O)N5CCC(OC)CC5)CC4)ccn3)[nH]c2c1` [Example 35.01.17, N-[4-({4-[(4-methoxypiperidin-1-yl)sulfonyl]piperazin-1-yl}methyl)pyridin-2-yl]-6-(5-methoxypyrimidin-4-yl)-1H-benzimidazol-2-amine], for which the IC50 came out at 39.2 nM.

In the case of `COc1cncnc1-c1ccc2nc(Nc3cc(CN4CCN(C(=O)N5CCOCC5)CC4)ccn3)[nH]c2c1` [Example 35.01.07, {4-[(2-{[6-(5-methoxypyrimidin-4-yl)-1H-benzimidazol-2-yl]amino}pyridin-4-yl)methyl]piperazin-1-yl}(morpholin-4-yl)methanone], the 50% inhibitory concentration (IC50) is 77.3 nM.

For `COc1nccc(-c2ccc3nc(Nc4cc(CN5CCN(C(=O)C6CC6)CC5)ccn4)[nH]c3c2)c1C` [Example 10.01, cyclopropyl{4-[(2-{[6-(2-methoxy-3-methylpyridin-4-yl)-1H-benzimidazol-2-yl]amino}pyridin-4-yl)methyl]piperazin-1-yl}methanone], the IC50 was 2260 nM.

As to `O=C(C1CC1)N1CCN(Cc2ccnc(Nc3nc4ccc(-c5ccncn5)cc4[nH]3)c2)CC1` [Example 23.01.02, cyclopropyl{4-[(2-{[6-(pyrimidin-4-yl)-1H-benzimidazol-2-yl]amino}pyridin-4-yl)methyl]piperazin-1-yl}methanone], the IC50 is 22.1 nM.

On to `CCOc1c(-c2ccncc2OC)ccc2nc(Nc3cc(CN4CCN(C(=O)C5CC5)CC4)ccn3)[nH]c12` [Example 51.03, cyclopropyl{4-[(2-{[7-ethoxy-6-(3-methoxypyridin-4-yl)-1H-benzimidazol-2-yl]amino}pyridin-4-yl)methyl]piperazin-1-yl}methanone], for which the IC50 stood at 113 nM.

For the compound `CC(c1ccnc(Nc2nc3ccc(-c4cnn(CC5CC5(F)F)c4)c(F)c3[nH]2)c1)N1CCN(C(=O)OC(C)(C)C)CC1` (single isomer, unassigned) [Example 86.01, tert-butyl 4-[(1R or 1S)-1-(2-{[6-(1-{[(1RS)-2,2-difluorocyclopropyl]methyl}-1H-pyrazol-4-yl)-7-fluoro-1H-benzimidazol-2-yl]amino}pyridin-4-yl)ethyl]piperazine-1-carboxylate], the IC50 came out at 11 nM.

For `CC(C)Oc1cnccc1-c1ccc2nc(Nc3cc(CN4CCN(C(=O)CC5CC5)CC4)ccn3)[nH]c2c1` [Example 06.03, 2-cyclopropyl-1-(4-{[2-({6-[3-(propan-2-yloxy)pyridin-4-yl]-1H-benzimidazol-2-yl}amino)pyridin-4-yl]methyl}piperazin-1-yl)ethanone], the IC50 stood at 8.26 nM.

As to `Cc1ncc(-c2ccc3nc(Nc4cc(CN5CCN(C(=O)C6CC6)CC5)ccn4)[nH]c3c2)cn1` [Example 45.03.02, cyclopropyl{4-[(2-{[6-(2-methylpyrimidin-5-yl)-1H-benzimidazol-2-yl]amino}pyridin-4-yl)methyl]piperazin-1-yl}methanone], the 50% inhibitory concentration (IC50) is 1330 nM.

As for `CC(c1ccnc(Nc2nc3ccc(-c4cnn(C(C)C5CC5)c4)cc3[nH]2)c1)N1CCN(C(=O)CC(F)(F)F)CC1` (single isomer, unassigned) [Example 74.02, 1-{4-[(1R or 1S)-1-{2-[(6-{1-[(1RS)-1-cyclopropylethyl]-1H-pyrazol-4-yl}-1H-benzimidazol-2-yl)amino]pyridin-4-yl}ethyl]piperazin-1-yl}-3,3,3-trifluoropropan-1-one], the IC50 amounted to 19 nM.

In the case of `CC(C)c1cc(-c2ccc3nc(Nc4cc(CN5CCN(C(=O)CC(F)(F)F)CC5)ccn4)[nH]c3c2)ncn1` [Example 78.01, 3,3,3-trifluoro-1-(4-{[2-({6-[6-(propan-2-yl)pyrimidin-4-yl]-1H-benzimidazol-2-yl}amino)pyridin-4-yl]methyl}piperazin-1-yl)propan-1-one], the IC50 was 22 nM.

For the compound `COc1c(-c2ccc3nc(Nc4cc(C(C)N5CCN(C(=O)OC(C)(C)C)CC5)ccn4)[nH]c3c2)ncnc1N1CCCC1` (single isomer, unassigned) [Example 112.01, tert-butyl 4-{(1R or S)-1-[2-({6-[5-methoxy-6-(pyrrolidin-1-yl)pyrimidin-4-yl]-1H-benzimidazol-2-yl}amino)pyridin-4-yl]ethyl}piperazine-1-carboxylate], the IC50 came to 8.2 nM.

As for `O=C(CC(F)(F)F)N1CCN(Cc2ccnc(Nc3nc4ccc(-c5ncnc(NCC6CCC6)c5F)cc4[nH]3)c2)CC1` [Example 191.02, 1-[4-({2-[(6-{6-[(cyclobutylmethyl)amino]-5-fluoropyrimidin-4-yl}-1H-benzimidazol-2-yl)amino]pyridin-4-yl}methyl)piperazin-1-yl]-3,3,3-trifluoropropan-1-one], the IC50 came to 95.3 nM.

As to `COc1ccccc1N1CCN(Cc2ccnc(Nc3nc4ccc(-c5nc(C)no5)cc4[nH]3)c2)CC1` [Example 101.07, N-(4-{[4-(2-methoxyphenyl)piperazin-1-yl]methyl}pyridin-2-yl)-6-(3-methyl-1,2,4-oxadiazol-5-yl)-1H-benzimidazol-2-amine], the IC50 amounted to 170 nM.

For `O=C(C1CC1)N1CCN(Cc2ccnc(Nc3nc4ccc(-c5cnc(Cl)cn5)cc4[nH]3)c2)CC1` [Example 140.03, {4-[(2-{[6-(5-chloropyrazin-2-yl)-1H-benzimidazol-2-yl]amino}pyridin-4-yl)methyl]piperazin-1-yl}(cyclopropyl)methanone], the IC50 is 290 nM.

For `CCNc1cc(-c2ccc3nc(Nc4cc(CN5CCN(C(=O)C6CC6)CC5)ccn4)[nH]c3c2)ncn1` [Example 149.03, cyclopropyl(4-{[2-({6-[6-(ethylamino)pyrimidin-4-yl]-1H-benzimidazol-2-yl}amino)pyridin-4-yl]methyl}piperazin-1-yl)methanone], the IC50 was found to be 2.3 nM.

With `Cc1nccc(-c2ccc3nc(Nc4cc(C(C)N5CCN(C(=O)CC(F)(F)F)CC5)ccn4)[nH]c3c2)n1` (single isomer, unassigned) [Example 24.05.01.B, 3,3,3-trifluoro-1-{4-[(1S or 1R)-1-(2-{[6-(2-methylpyrimidin-4-yl)-1H-benzimidazol-2-yl]amino}pyridin-4-yl)ethyl]piperazin-1-yl}propan-1-one], the IC50 was 6.62 nM.

Turning to `COc1cnccc1-c1ccc2nc(Nc3cc(CN4CCN(C(=O)OC(C)(C)C)CC4)ccn3)[nH]c2c1` [Example 04.01, tert-butyl 4-[(2-{[6-(3-methoxypyridin-4-yl)-1H-benzimidazol-2-yl]amino}pyridin-4-yl)methyl]piperazine-1-carboxylate], the IC50 amounted to 28.5 nM.

The values are drawn from patent US10894784B2, “Heteroarylbenzimidazole compounds” (BAYER PHARMA AKTIENGESELLSCHAFT, priority 2015, dated 2021).
